Reference: ChEMBL document CHEMBL1201862, “PubChem BioAssay data set” (2004)
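These data come from cells grown in 96-well plates and exposed to compound for 48 hours at five concentrations. The concentration for 50% growth inhibition is given as GI50.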 The source made the active and inactive calls. Cut-off read from the data, not from the text of the source: active = GI50 up to about 1.1 µM and inactive = higher.

Tests used:
Assay in all cases: DTP human tumour cell line panel, 48 h
TK-10 = system: TK-10
Malme-3M = system: Malme-3M
KM12 = system: KM12
EKVX = system: EKVX
M14 = system: M14
OVCAR-3 = system: OVCAR-3
A549 = system: A549
SR = system: SR
ACHN = system: ACHN
HCT-116 = system: HCT-116
CAKI-1 = system: CAKI-1
HCC 2998 = system: HCC 2998
UACC-257 = system: UACC-257
NCI-H460 = system: NCI-H460
MCF7 = system: MCF7
NCI/ADR-RES = system: NCI/ADR-RES
OVCAR-4 = system: OVCAR-4
SF-539 = system: SF-539
RXF 393 = system: RXF 393
SN12C = system: SN12C

Measured: GI50

CC(=O)OCC1OC(n2c(-c3ccc(C)cc3)cc(-c3ccco3)c(C#N)c2=S)C(OC(C)=O)C(OC(C)=O)C1OC(C)=O (stereo not given)
inactive: TK-10 52.1 µM | Malme-3M > 100 µM | KM12 > 100 µM | EKVX > 100 µM | M14 83.9 µM | OVCAR-3 > 100 µM | A549 69.5 µM | SR > 100 µM | ACHN 75.5 µM | HCT-116 29 µM | CAKI-1 > 100 µM | HCC 2998 > 100 µM | UACC-257 > 100 µM | NCI-H460 24.7 µM | MCF7 40.6 µM | NCI/ADR-RES 84.3 µM | OVCAR-4 > 100 µM | SF-539 17.4 µM | RXF 393 40.6 µM | SN12C > 100 µM

COc1cc2c(cc1OC)-c1cc3ccccc3c(=O)n1CC2
inactive: TK-10 19.9 µM | Malme-3M 16.4 µM | KM12 13.2 µM | EKVX 24.6 µM | M14 31.2 µM | OVCAR-3 22 µM | A549 11.4 µM | SR 14.3 µM | ACHN 37.5 µM | HCT-116 10.4 µM | CAKI-1 27.2 µM | HCC 2998 16.6 µM | UACC-257 40.8 µM | NCI-H460 28.2 µM | MCF7 28.3 µM | NCI/ADR-RES 25.2 µM | OVCAR-4 41.6 µM | SF-539 14.1 µM | RXF 393 2.33 µM | SN12C 26.1 µM

COc1ccc2c(c1)CC1Cc3ccccc3CCN1C2 (stereo not given)
inactive: TK-10 24.5 µM | Malme-3M 42.3 µM | KM12 21.6 µM | EKVX 59 µM | M14 23.6 µM | OVCAR-3 35.1 µM | A549 28.8 µM | SR 65.8 µM | ACHN 64 µM | HCT-116 40.1 µM | CAKI-1 20.3 µM | HCC 2998 35.2 µM | UACC-257 52.8 µM | NCI-H460 38.9 µM | MCF7 74.5 µM | NCI/ADR-RES 52 µM | OVCAR-4 > 100 µM | SF-539 31.1 µM | RXF 393 25.7 µM | SN12C > 100 µM
